System: Onchocerca gutturosa Adult Male Worms
Test: Onchocerciasis in vitro screening model, worm motility score
Type: cell-based
Conditions: Onchocerca gutturosa; Table 1 O. gutturosa; levels A/B/C; motility or MTT readout not specified; read-out: O. gutturosa activity level (IC50 or MED)

SMILES	IC50 [µM]
Cc1cccnc1Nc1nc(-c2ccc3c(n2)CN(CC2CC2)C3)ns1 [Compound 114, 3-(6-(cyclo-propylmethyl)-6,7-dihydro-5H-pyrrolo[3,4-b]pyridin-2-yl)-N-(3-methylpyridin-2-yl)-1,2,4-thiadiazol-5-amine]	0.5 to 5
CC(C)Oc1ccc(-c2nsc(Nc3ncccc3C(C)C)n2)nc1 [Compound 115, 3-(5-isopropoxy-pyridin-2-yl)-N-(3-isopropyl-pyridin-2-yl)-1,2,4-thiadiazol-5-amine]	< 0.2
CC(C)Oc1ccc(-c2nsc(Nc3ncccc3N3CCCC3)n2)nc1 [Compound 116, 3-(5-isopropoxy-pyridin-2-yl)-N-(3-(pyrrolidin-1-yl)pyridin-2-yl)-1,2,4-thiadiazol-5-amine]	< 0.2
CN(C)c1cccnc1Nc1nc(-c2ncccc2OC2CC2)ns1 [Compound 117, N2-(3-(3-cycloprop-oxypyridin-2-yl)-1,2,4-thiadiazol-5-yl)-N3,N3-dimethyl-pyridine-2,3-diamine]	0.2 to 0.5
CN(C)c1cccnc1Nc1nc(-c2ccc(OCC3CC3)cn2)ns1 [Compound 118, N2-(3-(5-(cyclopropyl-methoxy)pyridin-2-yl)-1,2,4-thiadiazol-5-yl)-N3,N3-dimethyl-pyridine-2,3-diamine]	< 0.2
CC(C)Oc1ccc(-c2nsc(Nc3cc(C(F)(F)F)c(C(C)C)cn3)n2)nc1 [Compound 119, 3-(5-isopropoxy-pyridin-2-yl)-N-(5-isopropyl-4-(trifluoromethyl)pyridin-2-yl)-1,2,4-thiadiazol-5-amine]	< 0.2
CN(C)c1cccnc1Nc1nc(-c2ccc(OC(F)F)cn2)ns1 [Compound 120, N2-(3-(5-(difluoromethoxy)pyridin-2-yl)-1,2,4-thiadiazol-5-yl)-N3,N3-dimethyl-pyridine-2,3-diamine]	0.5 to 5
CN(C)c1cccnc1Nc1nc(-c2ccc(F)cn2)ns1 [Compound 121, N2-(3-(5-fluoro-pyridin-2-yl)-1,2,4-thiadiazol-5-yl)-N3,N3-dimethylpyridine-2,3-diamine]	< 0.2
CNc1cccnc1Nc1nc(-c2ccc(OC3CCN(C4CC4)CC3(F)F)cn2)ns1 (centres unmarked) [Compound 122, N2-(3-(5-(1-cyclopropyl-3,3-difluoropiperidin-4-yloxy)pyridin-2-yl)-1,2,4-thiadiazol-5-yl)-N3-methyl-pyridine-2,3-diamine]	0.2 to 0.5
CN(C)c1cccnc1Nc1nc(-c2ccc(OC3CCN(C4CC4)CC3(F)F)cn2)ns1 (centres unmarked) [Compound 123, N2-(3-(5-(1-cyclopropyl-3,3-difluoro-piperidin-4-yloxy)pyridin-2-yl)-1,2,4-thiadiazol-5-yl)-N3,N3-dimethyl-pyridine-2,3-diamine]	< 0.2
Cc1cccnc1Nc1nc(-c2cnc(OC(C)C)cn2)ns1 [Compound 124, 3-(5-isopropoxy-pyrazin-2-yl)-N-(3-methyl-pyridin-2-yl)-1,2,4-thiadiazol-5-amine]	0.2 to 0.5
COc1cnc(-c2nsc(Nc3ncccc3C)n2)cn1 [Compound 125, 3-(5-methoxy-pyrazin-2-yl)-N-(3-methyl-pyridin-2-yl)-1,2,4-thiadiazol-5-amine]	0.5 to 5
CC(C)Oc1cnc(-c2nsc(Nc3ncccc3N(C)C)n2)cn1 [Compound 126, N2-(3-(5-iso-propoxypyrazin-2-yl)-1,2,4-thiadiazol-5-yl)-N3,N3-dimethylpyridine-2,3-diamine]	0.5 to 5
CC(C)c1cccnc1Nc1nc(-c2ccc(OC(F)F)cn2)ns1 [Compound 127, 3-(5-(difluoro-methoxy)pyridin-2-yl)-N-(3-isopropyl-pyridin-2-yl)-1,2,4-thiadiazol-5-amine]	< 0.2
CC(C)c1cccnc1Nc1nc(-c2ccc(F)cn2)ns1 [Compound 128, 3-(5-fluoro-pyridin-2-yl)-N-(3-isopropyl-pyridin-2-yl)-1,2,4-thiadiazol-5-amine]	0.5 to 5
COc1cccnc1Nc1nc(-c2ccc(OC3CCN(C4CC4)CC3(F)F)cn2)ns1 (centres unmarked) [Compound 129, 3-(5-(1-cyclopropyl-3,3-difluoro-piperidin-4-yloxy)pyridin-2-yl)-N-(3-methoxypyridin-2-yl)-1,2,4-thiadiazol-5-amine]	0.5 to 5
CC(C)Oc1ccc(-c2nsc(N(C)c3ncccc3C(C)C)n2)nc1 [Compound 130, 3-(5-isopropoxy-pyridin-2-yl)-N-(3-isopropy-lpyridin-2-yl)-N-methyl-1,2,4-thiadiazol-5-amine]	0.5 to 5
CCN(c1nc(-c2ccc(OC(C)C)cn2)ns1)c1ncccc1C [Compound 131, N-ethyl-3-(5-isopropoxy-pyridin-2-yl)-N-(3-methyl-pyridin-2-yl)-1,2,4-thiadiazol-5-amine]	< 0.2
CC(C)Oc1ccc(-c2nnc(Nc3ncccc3N(C)C)o2)nc1 [Compound 132, N2-(5-(5-isopropoxy-pyridin-2-yl)-1,3,4-oxadiazol-2-yl)-N3,N3-dimethyl-pyridine-2,3-diamine]	< 0.2

SMILES	IC50 [µM]
CC(C)Oc1ccc(-c2noc(Nc3ncccc3N(C)C)n2)nc1 [Compound 133, N2-(3-(5-is-opropoxy-pyridin-2-yl)-1,2,4-oxadiazol-5-yl)-N3,N3-dimethyl-pyridine-2,3-diamine]	0.5 to 5
COc1cccnc1Nc1nc(-c2cc(C(F)(F)F)c(OC3CC3)cn2)ns1 [Compound 134, 3-(5-cyclo-propoxy-4-(trifluoromethyl)pyridin-2-yl)-N-(3-methoxy-pyridin-2-yl)-1,2,4-thiadiazol-5-amine]	0.5 to 5
Cc1nccnc1Nc1nc(-c2ccc(OC(C)C)cn2)ns1 [Compound 135, 3-(5-isoprop-oxypyridin-2-yl)-N-(3-methyl-pyrazin-2-yl)-1,2,4-thia-diazol-5-amine]	< 0.2
CN(C)c1cccnc1Nc1nc(-c2ccc(OC3CC(F)(F)C3)cn2)ns1 [Compound 136, N2-(3-(5-(3,3-difluorocyclo-butoxy)pyridin-2-yl)-1,2,4-thiadiazol-5-yl)-N3,N3-dimethyl-pyridine-2,3-diamine]	0.5 to 5
COc1cccnc1Nc1nc(-c2ccc(OC3CC(F)(F)C3)cn2)ns1 [Compound 137, 3-(5-(3,3-difluorocyclo-butoxy)pyridin-2-yl)-N-(3-methoxypyridin-2-yl)-1,2,4-thiadiazol-5-amine]	0.5 to 5
Cc1cccnc1N(c1nc(-c2ccc(OC(C)C)cn2)ns1)C(C)C [Compound 138, 3-(5-isoprop-oxypyridin-2-yl)-N-isopropyl-N-(3-methylpyridin-2-yl)-1,2,4-thiadiazol-5-amine]	0.5 to 5
CC(C)Oc1ccc(-c2nsc(N(C)c3ncccc3N(C)C)n2)nc1 [Compound 139, N2-(3-(5-isoprop-oxypyridin-2-yl)-1,2,4-thiadiazol-5-yl)-N2,N3,N3-trimethylpyridine-2,3-diamine]	0.5 to 5
CC(C)Oc1ccc(-c2n[nH]c(Nc3ncccc3N(C)C)n2)nc1 [Compound 140, N2-(3-(5-isoprop-oxypyridin-2-yl)-1H-1,2,4-triazol-5-yl)-N3,N3-dimethyl-pyridine-2,3-diamine]	0.5 to 5
CN1CC(S(=O)(=O)c2ccc(-c3nsc(Nc4ncccc4N(C)C)n3)nc2)C1 [Compound 141, N3,N3-dimethyl-N2-(3-(5-(1-methylazetidin-3-ylsulfonyl)pyridin-2-yl)-1,2,4-thiadiazol-5-yl)pyridine-2,3-diamine]	0.5 to 5
CN1CCC(S(=O)(=O)c2ccc(-c3nsc(Nc4ncccc4N(C)C)n3)nc2)CC1 [Compound 142, N3,N3-dimethyl-N2-(3-(5-(1-methylpiperidin-4-ylsulfonyl)pyridin-2-yl)-1,2,4-thiadiazol-5-yl)pyridine-2,3-diamine]	0.5 to 5
CC(C)c1cnc(Nc2nc(-c3ccccn3)n(C)n2)cc1C(F)(F)F [Compound 143, 5-isopropyl-N-(1-methyl-5-(pyridin-2-yl)-1H-1,2,4-triazol-3-yl)-4-(trifluoromethyl) pyridin-2-amine]	0.5 to 5
CC(C)Oc1ccc(-c2nsc(Nc3nccnc3N(C)C)n2)nc1 [Compound 144, N2-(3-(5-isoprop-oxypyridin-2-yl)-1,2,4-thiadiazol-5-yl)-N3,N3-dimethyl-pyrazine-2,3-diamine]	0.2 to 0.5
CN(C)c1cccnc1Nc1nc(-c2ccc(S(=O)(=O)C3CCN(C4CC4)CC3)cn2)ns1 [Compound 145, N2-(3-(5-(1-cyclopropyl-piperidin-4-ylsulfonyl)pyridin-2-yl)-1,2,4-thiadiazol-5-yl)-N3,N3-dimethyl-pyridine-2,3-diamine]	0.5 to 5
CC(C)Oc1ccnc(-c2nc(Nc3cc(C(F)(F)F)c(C(C)C)cn3)nn2C)c1 [Compound 146, N-(5-(4-isoprop-oxypyridin-2-yl)-1-methyl-1H-1,2,4-triazol-3-yl)-5-isopropyl-4-(trifluoro-methyl) pyridin-2-amine]	0.5 to 5
CC(C)Oc1cc(-c2nsc(Nc3ncccc3N(C)C)n2)ncc1C(F)(F)F [Compound 147, N2-(3-(4-isoprop-oxy-5-(trifluoromethyl)pyridin-2-yl)-1,2,4-thiadiazol-5-yl)-N3,N3-dimethyl-pyridine-2,3-diamine]	0.5 to 5
CC(C)Oc1cccnc1-c1nc(Nc2cc(C(F)(F)F)c(C(C)C)cn2)nn1C [Compound 148, N-(5-(3-isoprop-oxypyridin-2-yl)-1-methyl-1H-1,2,4-triazol-3-yl)-5-isopropyl-4-(trifluoromethyl) pyridin-2-amine]	0.5 to 5
CC(C)COc1ccc(-c2nsc(Nc3ncccc3N(C)C)n2)nc1 [Compound 149, N2-(3-(5-isobutoxy-pyridin-2-yl)-1,2,4-thiadiazol-5-yl)-N3,N3-dimethyl-pyridine-2,3-diamine]	< 0.2
CC(C)COc1cnc(-c2nsc(Nc3ncccc3N(C)C)n2)cn1 [Compound 150, N2-(3-(5-isobutoxy-pyrazin-2-yl)-1,2,4-thiadiazol-5-yl)-N3,N3-dimethyl-pyridine-2,3-diamine]	0.5 to 5
Cc1cccnc1Nc1nc(-c2cc(OC3CC3)c(C(F)(F)F)cn2)ns1 [Compound 151, 3-(4-cyclo-propoxy-5-(trifluoromethyl)pyridin-2-yl)-N-(3-methylpyridin-2-yl)-1,2,4-thiadiazol-5-amine]	< 0.2
